From article PMC4295843, “Metabolism of Androstenone, 17β-Estradiol and Dihydrotestosterone in Primary Cultured Pig Hepatocytes and the Role of 3β-Hydroxysteroid Dehydrogenase in This Process” (PLoS ONE, 2015)
Entries after “also recorded” stand apart in the source; their conditions may differ. Like-named read-outs stand apart in the source and are kept apart here.

Columns and labels:
[1] = system: primary cultured pig hepatocytes; assay: Steroid metabolism in primary cultured pig hepatocytes, LC-TOF-MS of cell culture medium; conditions: for Peak height of the ion chromatogram of the steroid metabolite in cell culture medium, C: 48 h incubation in absence of enzyme inhibitors, 10 µM parent steroid, Mean ± SD
in vitro = conditions: male, Large White, pig
Protocol: Primary pig hepatocytes were isolated from Large White male pigs (3–5 days old) using procedure described by Chen et al.. The experimental protocol for using animals was approved by the Animal Ethics Committee of the China Agricultural University, Beijing, China (permission number: 2011-11-23-1). […] Approximately 5×10^6 cells were plated into 10 cm Petri dishes with 10 ml of Dulbecco modified Eagle’s medium (DMEM) containing 20% fetal bovine serum (FBS) supplemented with insulin (10 mg/L), penicillin (100 U/mL) and streptomycin (100 µg/mL). Hepatocytes were incubated for 24 h in a humidified atmosphere at 37°C with 5% of CO2.
After the incubation, the primary pig hepatocytes were washed three times with phosphate buffer saline solution (PBS) before they were treated with steroids and/or inhibitors. In steroid metabolism studies, hepatocytes were incubated in 10 ml of basal growth medium containing phenol red-free DMEM with 10% of charcoal treated FBS fortified with 10 µM (final concentration) of androstenone, 17β-estradiol or dihydrotestosterone. In the inhibition experiments, 10 µM (final concentration) of trilostane or apigenin, the specific inhibitors of 3βHSD and 17βHSD respectively, were added to hepatocytes simultaneously with androstenone, 17β-estradiol or dihydrotestosterone. Solutions of both, the inhibitors and steroids, were prepared in methanol. […] In the cytotoxicity text, the steroids were incubated with different concentrations of inhibitors (1, 10, 25 and 50 µM) for 48 h. The cell viability was analyzed using CellTiter-Glo Luminescent Cell Viability Assay (Promega, Madison, WI) reagent following manufacture’s protocol. The cell culture medium was collected at the following time points: 0, 6, 12, 18, 24, 30, 36, 42 and 48 h after adding steroids and/or inhibitors, and was stored at −80°C until metabolites analysis. Cells treated with basal growth medium were used as control. The experiments were repeated in three different days. Experiments on each of the three days were conducted in triplicate.

[2] = system: primary cultured pig hepatocytes; conditions: male, Large White, 10 µM
17βHSD = assay: Inhibition of steroid glucuronide metabolite formation in pig hepatocytes by the 17βHSD inhibitor; format: cell-based
Protocol: (§1) The experiments were repeated in three different days.
(§2) Extraction procedure for steroid metabolites was as follows: two mL of cell culture medium was taken in duplicate from each hepatocytes incubation and split into two samples, 1 mL per sample. One sample was treated with 0.1 mL of 30% trichloroacetic acid (TCA) to precipitate protein. The protein precipitation procedure was optimized by analyzing protein residues using HPLC at ultraviolet wavelength (240 nm). Another sample was pre-treated with β-glucuronidase prior to protein precipitation. The pre-treatment involved incubation with 2 mL of PBS buffer (pH = 5.0) in the presence of β-glucuronidase (2.08 µkat) for 16 h at 37°C. The samples were centrifuged at 17226 g for 10 min. All of the supernatants were collected and loaded onto a SPE cartridge (Bond Elut-C18, 500 mg/3 mL, Agilent, Lake Forest, CA, USA) preconditioned with 3 mL of methanol and water. The cartridges were washed with 3 mL of water and 3 mL 5% of methanol and then vacuum dried. The analytes were eluted with 9 mL of acetonitrile (ACN). The elutants were evaporated under nitrogen and reconstituted with 400 µL of 62.5% methanol. Solvents were passed through 0.22 µm filter paper (Jinteng company, Tianjin, China), and then transferred to inserts for analysis. The recoveries were determined by analyzing spiked samples in a basal medium. The recoveries for androstenone, 17β-estradiol and dihydrotestosterone were in a range of 60–95%.
(§3) Steroid metabolites were analyzed by LC-TOF-MS (QSTAR Elite, AB Sciex, ON, Canada) equipped with an electrospray ion source (TurboIonSpray) and controlled by Analyst QS 2.0 software. ESI source was run on both, a positive and negative mode. Spectrometry parameters were as follows: ion source GS1 and GS2 were 0.41 and 0.34 MPa, respectively. Curtain gas was 0.14 MPa. Collision gas was 0.04 MPa. All the gases were supplied with nitrogen (purity≥99.995%). IonSpray voltage was 5500 V (ESI+) and −4200 V (ESI–). Ion source temperature was 500°C. Declustering Potential (DP) was 60 V (ESI+) and −60 V (ESI–). The Q1 mass monitoring was conducted using a scan mode in the range from 200 to 600 m/z. Mass intensity above 100 counts was set for acquiring product ions on TOF analyzer. An information dependent acquisition (IDA) method was set to optimize data acquisition.
(§4) Chromatographic separation was conducted using HPLC coupled to mass spectrometry (1200 SL, Agilent Technologies, USA) equipped with a binary pump, vacuum solvent degasser, column oven and autosampler (Agilent Technologies, Waldbronn, Germany). The column used was Zorbax Eclipse Plus C18 (2.1×100 mm, 3.5 µm) with a guard column (2.1×12.5 mm, 5 µm) (Agilent Technologies, USA). For the ESI+ mode, the mobile phase was 0.1% formic acid in water (A) and methanol (B). For the ESI– mode, the mobile phase was 0.1% ammonium in water (A) and methanol (B). The linear gradient used was as follows: 50% to 95% solvent B at 0–5 min; 95% solvent at 9 min, 50% solvent B at 9.1 and 15 min. The flow rate was 300 µL/min, and the sample injection volume was 20 µL.

3βHSD = target: T1, 3βHSD (Sus scrofa, UniProt Q9N119); assay: Inhibition of steroid glucuronide metabolite formation in pig hepatocytes by the 3βHSD inhibitor; format: cell-based
T1 construct: endogenous in cells; host or cells: primary hepatocytes of Large White male pigs
T1 sequence (Q9N119 1-373): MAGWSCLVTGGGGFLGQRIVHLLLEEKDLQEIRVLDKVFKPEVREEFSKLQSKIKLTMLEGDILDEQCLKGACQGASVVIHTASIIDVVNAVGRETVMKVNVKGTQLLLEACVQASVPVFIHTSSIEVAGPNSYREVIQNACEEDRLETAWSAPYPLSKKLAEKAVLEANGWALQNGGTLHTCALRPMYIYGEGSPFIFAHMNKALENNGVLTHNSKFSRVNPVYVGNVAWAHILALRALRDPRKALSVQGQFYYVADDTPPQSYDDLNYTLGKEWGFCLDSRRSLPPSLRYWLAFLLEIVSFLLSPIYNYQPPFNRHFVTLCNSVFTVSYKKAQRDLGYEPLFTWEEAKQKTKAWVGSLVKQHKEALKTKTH
Protocol: as §1, §2, §3, §4

[3] = 10 µM inhibitor with 17β-estradiol
[4] = 10 µM inhibitor with dihydrotestosterone
[5] = 48 h, 10 µM apigenin with 10 µM 17β-estradiol, Mean ± SD
[6] = 48 h, 10 µM trilostane with 10 µM 17β-estradiol, Mean ± SD

| Compound | Peak height of the ion chromatogram of the steroid metabolite in cell culture medium, C [1] [cps/1000] | viability at 48 h, 1 µM (in vitro) [%] | viability at 48 h, 10 µM (in vitro) [%] | viability at 48 h, 25 µM (in vitro) [%] | viability at 48 h, 50 µM (in vitro) [%] | other results |
| --- | --- | --- | --- | --- | --- | --- |
| 5α-androst-16-en-3β-glucuronide [Androstenone glucuronide] | 3.4±0.5 |  |  |  |  |  |
| C[C@]12CC[C@@H]3c4ccc(O)cc4CC[C@H]3[C@@H]1CC[C@@H]2O [17β-Estradiol] |  | 109 ± 4.8 | 91.6 ± 0.4 | 89.8 ± 8 | 83.6 ± 1.6 | Share of 17β-estradiol oxidized at C-17 to estrone, forming E1-G [2]: over 80%; Share of 17β-estradiol undergoing direct phase II metabolism, forming E2-G [2]: Less than 20%; Parent steroid in cell culture medium after incubation with hepatocytes ([2]; 6 h): No 17β-estradiol was found |
| C[C@]12CCC(=O)C[C@@H]1CC[C@@H]1[C@@H]2CC[C@]2(C)C=CC[C@@H]12 [Androstenone, 5α-androst-16-ene-3-one] |  | 90.6 ± 3.8 | 89 ± 7.2 | 77.2 ± 0.6 | 78.7 ± 6.8 | Metabolite identified [2]: hydroxylated to 3β-A prior to glucuronidation |
| O=c1cc(-c2ccc(O)cc2)oc2cc(O)cc(O)c12 [Apigenin, apigenin] |  | 97.7 ± 3.2 | 83.5 ± 5.9 | 64.2 ± 1.7 | 69.8 ± 0.9 | Inhibition of E2-G and E1-G formation (17βHSD; [3]): no significant inhibition; Effect on the level of androstenone metabolite (17βHSD; 10 µM inhibitor with androstenone): did not affect significantly; Effect on DHT-G level / formation (17βHSD; [4]): did not have any effect; Peak height of Estradiol 3β-glucuronide in cell culture medium (17βHSD; [5]): 2.6±0.1 cps/1000; Peak height of Estrone glucuronide in cell culture medium (17βHSD; [5]): 15.3±1.1 cps/1000; Peak height of Androstenone glucuronide in cell culture medium (17βHSD; 48 h, 10 µM apigenin with 10 µM androstenone, Mean ± SD): 3.7±0.9 cps/1000; Peak height of Dihydrotestosterone 17β-glucuronide in cell culture medium (17βHSD; 48 h, 10 µM apigenin with 10 µM dihydrotestosterone, Mean ± SD): 11.5±0.5 cps/1000 |
| C[C@]12CCC(=O)C[C@@H]1CC[C@@H]1[C@@H]2CC[C@]2(C)[C@@H](O)CC[C@@H]12 [Dihydrotestosterone] |  | 96.7 ± 0.1 | 84.3 ± 3.9 | 79.1 ± 2.2 | 76.1 ± 4.7 | Metabolite identified ([1]; 10 µM steroid, LC-TOF-MS, cell culture medium): 5α-dihydrotestosterone-17β-glucuronide; Parent steroid in cell culture medium after incubation with hepatocytes ([1]; 10 µM steroid, after 6 h of incubation): rapidly metabolized; also recorded: No dihydrotestosterone was found |
| C[C@]12CC[C@@H]3c4ccc(O[C@@H]5O[C@H](C(=O)O)[C@@H](O)[C@H](O)[C@H]5O)cc4CC[C@H]3[C@@H]1CC[C@@H]2O [Estradiol 3β-glucuronide, β-estradiol-3-glucuronide] | 3.1±0.8 |  |  |  |  |  |
| C[C@]12CC[C@@H]3c4ccc(O[C@@H]5O[C@H](C(=O)O)[C@@H](O)[C@H](O)[C@H]5O)cc4CC[C@H]3[C@@H]1CCC2=O [Estrone glucuronide, estrone-3-glucuronide] | 16.5±2.2 |  |  |  |  |  |
| C[C@]12CC[C@H]3[C@@H](CC[C@@]45O[C@@H]4C(O)=C(C#N)C[C@]35C)[C@@H]1CC[C@@H]2O [Trilostane, trilostane] |  | 91.8 ± 0.1 | 82.4 ± 2.1 | 79.1 ± 2.9 | 69.2 ± 1.8 | Inhibition of E2-G and E1-G formation (3βHSD; [3]): no significant inhibition; Effect on DHT-G formation (3βHSD; [4]): greatly inhibited; Decrease in the formation of androstenone metabolite (3βHSD; 10 µM inhibitor, cell culture medium): 70%; Reduction of DHT-G formation (3βHSD; 10 µM inhibitor, hepatocytes): ~86%; Peak height of Estradiol 3β-glucuronide in cell culture medium (3βHSD; [6]): 2.7±0.4 cps/1000; Peak height of Estrone glucuronide in cell culture medium (3βHSD; [6]): 13.5±1.7 cps/1000; Peak height of Androstenone glucuronide in cell culture medium (3βHSD; 48 h, 10 µM trilostane with 10 µM androstenone, Mean ± SD): 1.0±0.6 cps/1000; Peak height of Dihydrotestosterone 17β-glucuronide in cell culture medium (3βHSD; 48 h, 10 µM trilostane with 10 µM dihydrotestosterone, Mean ± SD): 1.6±0.2 cps/1000 |
